ChEMBL document CHEMBL1128981, “A comparison of steroidal and non-steroidal inhibitors of human steroid 5-reductase: New tricyclic aryl acid inhibitors of the type-1 isozyme” (Bioorg Med Chem Lett, 1996)

Legend:
[1] = biological target: T1, 3-oxo-5-alpha-steroid 4-dehydrogenase 2 (Homo sapiens, UniProt P31213); test: (§1) Inhibitory activity against type-2 human steroid 5-alpha-reductase at a concentration of 1 uM; No inhibition
T1 sequence (P31213 whole entry): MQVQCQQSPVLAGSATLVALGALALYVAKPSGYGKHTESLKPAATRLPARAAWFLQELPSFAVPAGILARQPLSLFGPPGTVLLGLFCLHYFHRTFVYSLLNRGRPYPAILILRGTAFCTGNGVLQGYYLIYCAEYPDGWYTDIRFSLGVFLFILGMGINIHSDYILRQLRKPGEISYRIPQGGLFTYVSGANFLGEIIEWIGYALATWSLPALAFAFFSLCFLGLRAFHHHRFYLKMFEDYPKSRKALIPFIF

[2] = biological target: T1, 3-oxo-5-alpha-steroid 4-dehydrogenase 2; test: as §1; remark: listed apart in the source
[3] = biological target: T1, 3-oxo-5-alpha-steroid 4-dehydrogenase 2; test: Inhibition of type-2 human steroid 5-alpha-reductase.; conditions: read-out: Ki app
[4] = biological target: T2, 3-oxo-5-alpha-steroid 4-dehydrogenase 1 (Homo sapiens, UniProt P18405); test: Inhibition of type-1 human steroid 5-alpha-reductase; conditions: read-out: Ki app
T2 sequence (P18405 whole entry): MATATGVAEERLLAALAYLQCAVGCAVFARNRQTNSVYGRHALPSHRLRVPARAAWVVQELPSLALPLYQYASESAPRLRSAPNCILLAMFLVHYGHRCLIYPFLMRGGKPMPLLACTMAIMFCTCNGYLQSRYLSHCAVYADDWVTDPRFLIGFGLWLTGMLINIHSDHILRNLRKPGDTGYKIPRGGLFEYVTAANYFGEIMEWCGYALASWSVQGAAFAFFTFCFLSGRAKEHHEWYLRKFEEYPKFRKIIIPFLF

[5] = biological target: T3, 3-oxo-5-alpha-steroid 4-dehydrogenase 2 (Homo sapiens) (UniProt P31213); conditions: 10 uM
T3 sequence (whole entry): T1 sequence (P31213 whole entry)
Description: Inhibitory activity against type-2 human steroid 5-alpha-reductase at a concentration of 10 uM

[6] = biological target: T4, 3-oxo-5-alpha-steroid 4-dehydrogenase 1 (Homo sapiens) (UniProt P18405); test: Inhibitory activity against type-1 human steroid 5-alpha-reductase at a concentration of 2.5 uM
T4 sequence (whole entry): T2 sequence (P18405 whole entry)

[7] = biological target: T3, 3-oxo-5-alpha-steroid 4-dehydrogenase 2 (Homo sapiens); conditions: 20 uM
Description: Inhibitory activity against type-2 human steroid 5-alpha-reductase at a concentration of 20 uM

[8] = biological target: T1, 3-oxo-5-alpha-steroid 4-dehydrogenase 2; test: Inhibitory activity against type-2 human steroid 5-alpha-reductase.
[9] = biological target: T2, 3-oxo-5-alpha-steroid 4-dehydrogenase 1; test: Inhibitory activity against type-1 human steroid 5-alpha-reductase.
[10] = biological target: T3, 3-oxo-5-alpha-steroid 4-dehydrogenase 2 (Homo sapiens); test: Inhibitory activity against type-2 human steroid 5-alpha-reductase at a concentration of 2.5 uM
[11] = biological target: T1, 3-oxo-5-alpha-steroid 4-dehydrogenase 2; test: Inhibitory activity against type-2 human steroid 5-alpha-reductase at a concentration of 1 uM: No inhibition

Ki [3] | Ki [4] | Compound | also measured
10000 nM | 315 nM | O=C(O)c1ccc2c(c1)CCc1ccccc1-2 | inhibition [5]: 20%
10000 nM | 26 nM | O=C(O)c1ccc2c(c1)CCc1cc(Br)ccc1-2 | –
10000 nM | > 2500 nM | O=C(O)c1ccc2c(c1)Cc1ccccc1-2 | inhibition [6]: 30%
260 nM | 1200 nM | C[C@]12CCC(C(=O)O)=CC1=CCc1cc(Cl)ccc12 | –
2500 nM | 320 nM | O=C(O)c1ccc2c(c1)CCc1cc(Cl)ccc1-2 | inhibition [10]: 50%

Second part, the molecule before the results:

Compound | Ki [3] | Ki [4] | also measured
CN1C(=O)CC[C@]2(C)c3ccc(Cl)cc3CC[C@@H]12 | – | – | Ki app [1]: Not Active; Ki app [2]: Not Active
CC(C)N(C(=O)[C@H]1CCC2C3CC[C@H]4C=C([N+](=O)[O-])CC[C@]4(C)C3CC[C@@]21C)C(C)C (some centres undefined) | 30 nM | 4200 nM | –
CC(C)(C)NC(=O)[C@H]1CCC2C3CC=C4C=C([PH](=O)O)CC[C@]4(C)C3CC[C@@]21C (some centres undefined) | 1.3 nM | 3200 nM | –
CCN(CC)C(=O)[C@H]1CC[C@H]2[C@@H]3CC[C@H]4N(C)C(=O)CC[C@]4(C)[C@H]3CC[C@]12C | 2 nM | 3 nM | –
CC(C)(C)NC(=O)[C@H]1CC[C@H]2[C@@H]3CCc4cc(C(=O)O)ccc4[C@H]3CC[C@]12C | 0.4 nM | 1600 nM | –
CC1=C2NCc3cc(Cl)ccc3[C@@]2(C)CCC1=O | 20000 nM | 920 nM | inhibition [7]: 49%
CC(C)(C)NC(=O)[C@H]1CC[C@H]2[C@@H]3CC[C@H]4NC(=O)C=C[C@]4(C)[C@H]3CC[C@]12C [FINASTERIDE] | – | – | IC50 [8]: 4.2 nM; IC50 [9]: 500 nM
C[C@]12CCC([PH](=O)O)=CC1=CCc1cc(Cl)ccc12 | 1600 nM | 1900 nM | –
CC(C)CC(=O)[C@H]1CCC2C3CNC4=CC(=O)CC[C@]4(C)C3CC[C@@]21C (some centres undefined) | 0.08 nM | – | –
COc1cccc2c1CC[C@H]1C=C([N+](=O)[O-])CC[C@]21C | – | > 2500 nM | Ki app [11]: Not Active; inhibition [6]: 10%
